These results are taken from ChEMBL document CHEMBL1201862, “PubChem BioAssay data set” (2004).

Test systems include SR; RXF 393; OVCAR-8; MDA-MB-435; M14; SF-295; MCF7; HOP-92; HCC 2998; UO-31; TK-10; SF-268; OVCAR-4; SK-MEL-28; DU-145; EKVX; SN12C; CCRF-CEM; MDA-MB-231; HCT-15.
Assay in all cases: inhibition of tumour cell growth, NCI panel, 48 h

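Growth conditions: 96-well plates. Treatment: test compound, 48 hours, 5 concentrations. Analysis: linear interpolation between bracketing concentrations; unreached endpoints set to highest concentration. GI50 = concentration required for 50% inhibition of growth.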 Activity calls are given as the source filed them. Rule as the data show it: active = GI50 up to about 1.1 µM and inactive = higher.

Regarding `CCOC(=O)c1c(C)n(Cc2ccc(Cl)cc2Cl)c2c1cc(O)c1[nH]c3c(c12)CCCC3`, the GI50 in the experiment on SR is 0.136 µM (active); in the experiment with RXF 393 it was 18.5 µM (inactive); in the experiment with OVCAR-8, 11.4 µM (inactive); in the experiment with MDA-MB-435, 20.3 µM (inactive); with M14, 26.7 µM (inactive); in the experiment with SF-295, 29.3 µM (inactive). Also, the GI50 in the experiment on MCF7 was 14.6 µM (inactive); with HOP-92 it was 20.2 µM (inactive); in the experiment on HCC 2998 it was 27.3 µM (inactive); in the experiment on UO-31 it was 20.7 µM (inactive); in the experiment with TK-10, 24.5 µM (inactive); in the experiment with SF-268 it was 20.8 µM (inactive). Besides, the GI50 is 17.1 µM (inactive) with OVCAR-4; 22.1 µM (inactive) in the experiment with SK-MEL-28; 36.4 µM (inactive) in the experiment with DU-145; 34.6 µM (inactive) in the experiment on EKVX; 22.9 µM (inactive) in the experiment with SN12C; 16.8 µM (inactive) in the experiment on CCRF-CEM. Further, the values for the GI50 in the experiment with MDA-MB-231 and in the experiment with HCT-15 were 34.2 µM (inactive) and 41.7 µM, respectively.

Turning to `COc1cc(/C=C/c2ccc(C)cc2)cc(OC)c1OC`, the GI50 with SR was 2.52 µM (inactive); in the experiment on RXF 393 it was 4.42 µM (inactive); in the experiment with OVCAR-8 it was 4.43 µM (inactive); with MDA-MB-435, 1.14 µM (inactive); in the experiment on M14, 3.56 µM (inactive); in the experiment with SF-295, 2.54 µM (inactive). Also, the GI50 is 3.46 µM (inactive) in the experiment on MCF7; 9.33 µM (inactive) with HOP-92; 4.82 µM (inactive) in the experiment with HCC 2998; 4.49 µM (inactive) with UO-31; 7.69 µM (inactive) in the experiment with TK-10; 5.37 µM (inactive) in the experiment with SF-268. Besides, the GI50 with OVCAR-4 is 17.3 µM (inactive); in the experiment with SK-MEL-28 it was 5.77 µM (inactive); with DU-145 it was 3.01 µM (inactive); with EKVX, 4.7 µM (inactive); in the experiment on SN12C, 4.57 µM (inactive); in the experiment with CCRF-CEM, 3.45 µM (inactive). Besides, the values for the GI50 with MDA-MB-231 and in the experiment on HCT-15 were 5 µM (inactive) and 4.08 µM, respectively.

`CC(=O)Oc1cccc2c(/C=N/NC(N)=S)ncc(C)c12`: the GI50 was 0.331 µM (active) in the experiment on SR; 4.15 µM (inactive) in the experiment on RXF 393; 0.463 µM (active) in the experiment with OVCAR-8; 4.29 µM (inactive) in the experiment on MDA-MB-435; 0.753 µM (active) in the experiment on M14; 2.47 µM (inactive) in the experiment with SF-295. Further, the GI50 with MCF7 is 0.603 µM (active); in the experiment on HOP-92, 3.27 µM (inactive); with HCC 2998, 0.818 µM (active); in the experiment with UO-31, 1.05 µM (active); in the experiment on TK-10, 7.64 µM (inactive); in the experiment with SF-268, 0.357 µM (active). For the same molecule, the GI50 was 7.41 µM (inactive) in the experiment on OVCAR-4; 13.2 µM (inactive) with SK-MEL-28; 0.347 µM (active) with DU-145; 4.72 µM (inactive) in the experiment with EKVX; 0.863 µM (active) in the experiment with SN12C; 0.422 µM (active) in the experiment on CCRF-CEM. For the same molecule, the GI50 in the experiment with MDA-MB-231 was 2.58 µM (inactive); in the experiment on HCT-15 it was 2.88 µM.

`Cc1ccc(NCC2CC/C(=C\c3ccc(Cl)cc3)C2=O)cc1` (stereo not given): the GI50 is 3.87 µM (inactive) with SR; 17 µM (inactive) with RXF 393; 15.9 µM (inactive) in the experiment on OVCAR-8; 14.4 µM (inactive) with MDA-MB-435; 13.4 µM (inactive) in the experiment with M14; 28.1 µM (inactive) in the experiment with SF-295. Besides, the GI50 with MCF7 was 2.83 µM (inactive); with HOP-92 it was 0.569 µM (active); with HCC 2998 it was 30.6 µM (inactive); in the experiment with UO-31, 21.2 µM (inactive); with TK-10, 11.3 µM (inactive); in the experiment on SF-268, 18.5 µM (inactive). The GI50 was 24.4 µM (inactive) in the experiment with OVCAR-4; 15.6 µM (inactive) with SK-MEL-28; 30.1 µM (inactive) in the experiment with DU-145; 52.7 µM (inactive) in the experiment with EKVX; 13.1 µM (inactive) with SN12C; 2.39 µM (inactive) with CCRF-CEM. In addition, the GI50 in the experiment with MDA-MB-231 was 11.4 µM (inactive); with HCT-15, 1.94 µM.

On to `CS(C)(=O)=N/C=C\C(=O)C(Cl)(Cl)Cl`, for which the GI50 in the experiment on SR is 58.7 µM (inactive); in the experiment with RXF 393, > 100 µM (inactive); with OVCAR-8, > 100 µM (inactive); in the experiment on MDA-MB-435, > 100 µM (inactive); in the experiment on M14, > 100 µM (inactive); in the experiment with SF-295, > 100 µM (inactive). For the same molecule, the GI50 in the experiment with MCF7, with HOP-92, in the experiment with HCC 2998, with UO-31, with TK-10 and in the experiment on SF-268 was > 100 µM (inactive) throughout. For the same molecule, the GI50 with OVCAR-4 is > 100 µM (inactive); in the experiment with SK-MEL-28, > 100 µM (inactive); with DU-145 it was > 100 µM (inactive); with EKVX, > 100 µM (inactive); in the experiment with SN12C it was > 100 µM (inactive); with CCRF-CEM it was 44.1 µM (inactive). Besides, the GI50 was > 100 µM (inactive) with MDA-MB-231 and greater than 100 µM in the experiment on HCT-15.

For `S=C(NCCc1ccccn1)N/N=C(\c1ccccc1)c1ccccn1`, the GI50 is 1.36 µM (inactive) in the experiment on SR; 2.4 µM (inactive) in the experiment on RXF 393; < 0.01 µM (active) in the experiment on OVCAR-8; 5.86 µM (inactive) in the experiment with MDA-MB-435; 0.0378 µM (active) in the experiment with M14; 2.33 µM (inactive) with SF-295. In addition, the GI50 in the experiment with MCF7 is < 0.01 µM (active); in the experiment on HOP-92, 1.63 µM (inactive); in the experiment with HCC 2998, 12.1 µM (inactive); with UO-31, 1.23 µM (inactive); with TK-10 it was 1.33 µM (inactive); in the experiment with SF-268 it was 0.222 µM (active). The GI50 in the experiment with OVCAR-4 was 3.01 µM (inactive); in the experiment on SK-MEL-28, 14.7 µM (inactive); in the experiment on DU-145, 3.4 µM (inactive); in the experiment on EKVX it was 0.0525 µM (active); with SN12C, < 0.015 µM (active); with CCRF-CEM, < 0.01 µM (active). Also, the GI50 was 0.0247 µM (active) in the experiment on MDA-MB-231 and 0.0277 µM with HCT-15.

Turning to `CCN(CC)CCc1c2c(nc3ccccc13)C(=O)c1cccnc1C2=O`, the GI50 is 0.211 µM (active) in the experiment with SR; 2.37 µM (inactive) in the experiment with RXF 393; 3.52 µM (inactive) in the experiment with OVCAR-8; 1.93 µM (inactive) in the experiment with MDA-MB-435; 0.454 µM (active) in the experiment with M14; 2.02 µM (inactive) in the experiment on SF-295. Further, the GI50 is 0.345 µM (active) with MCF7; 3.13 µM (inactive) with HOP-92; 2.54 µM (inactive) with HCC 2998; 1.57 µM (inactive) in the experiment on UO-31; 2.66 µM (inactive) in the experiment on TK-10; 2.44 µM (inactive) with SF-268. Also, the GI50 was 0.726 µM (active) in the experiment on OVCAR-4; 1.8 µM (inactive) in the experiment on SK-MEL-28; 0.344 µM (active) with DU-145; 2.89 µM (inactive) in the experiment on EKVX; 1.1 µM (active) in the experiment on SN12C; 1.97 µM (inactive) with CCRF-CEM. Also, the figures for the GI50 with MDA-MB-231 and with HCT-15 were 1.83 µM (inactive) and 0.188 µM, respectively.

On to `c1ccc(CCN(Cc2nc3ccccc3[nH]2)Cc2nc3ccccc3[nH]2)cc1`, for which the GI50 in the experiment on SR is 9.27 µM (inactive); with RXF 393, 13.3 µM (inactive); in the experiment with OVCAR-8, 6.18 µM (inactive); in the experiment on MDA-MB-435 it was 12.4 µM (inactive); in the experiment with M14, 12.9 µM (inactive); in the experiment with SF-295 it was 14.8 µM (inactive). The GI50 in the experiment on MCF7 is 11.7 µM (inactive); in the experiment on HOP-92, 12.5 µM (inactive); with HCC 2998 it was 16.9 µM (inactive); in the experiment with UO-31, 10.9 µM (inactive); in the experiment with TK-10 it was 16.3 µM (inactive); in the experiment with SF-268, 13.6 µM (inactive). Besides, the GI50 in the experiment on OVCAR-4 is 17.5 µM (inactive); in the experiment on SK-MEL-28 it was 13.7 µM (inactive); in the experiment with DU-145, 14.4 µM (inactive); in the experiment on EKVX it was 39.1 µM (inactive); in the experiment on SN12C, 14.6 µM (inactive); with CCRF-CEM, 3.39 µM (inactive). The results for the GI50 with MDA-MB-231 and with HCT-15 were 13.2 µM (inactive) and 7.45 µM, respectively.

For `C[C@H](CCC1=NCCN1)[C@H]1CC[C@H]2[C@@H]3CC[C@@H]4C[C@H](O)CC[C@]4(C)[C@H]3CC[C@]12C`, the GI50 in the experiment with SR is 2.55 µM (inactive); with RXF 393, 12.2 µM (inactive); with OVCAR-8, 12 µM (inactive); in the experiment with MDA-MB-435, 4.53 µM (inactive); in the experiment with M14, 2.49 µM (inactive); in the experiment on SF-295 it was 3.4 µM (inactive). Besides, the GI50 with MCF7 was 6.52 µM (inactive); in the experiment on HOP-92, 3.3 µM (inactive); in the experiment on HCC 2998, 5.15 µM (inactive); with UO-31 it was 14.2 µM (inactive); with TK-10, 7.74 µM (inactive); in the experiment with SF-268, 10.6 µM (inactive). In addition, the GI50 was 12.9 µM (inactive) with OVCAR-4; 2.08 µM (inactive) in the experiment on SK-MEL-28; 13.9 µM (inactive) with DU-145; 13.3 µM (inactive) in the experiment on EKVX; 8.85 µM (inactive) in the experiment with SN12C; 4.08 µM (inactive) with CCRF-CEM. The GI50 in the experiment on MDA-MB-231 was 5.78 µM (inactive); with HCT-15, 18.5 µM.

On to `CCOC(=O)/C=C(/C(=O)OCC)n1ccc(=O)[nH]c1=O`, for which the GI50 in the experiment on SR is 4.36 µM (inactive); in the experiment on RXF 393, 4.21 µM (inactive); with OVCAR-8, 13 µM (inactive); in the experiment with MDA-MB-435 it was 10.8 µM (inactive); with M14, 3.83 µM (inactive); in the experiment on SF-295, 18.7 µM (inactive). In addition, the GI50 with MCF7 is 4.19 µM (inactive); in the experiment on HOP-92, 2.07 µM (inactive); in the experiment on HCC 2998 it was 16.5 µM (inactive); in the experiment with UO-31, 14 µM (inactive); with TK-10 it was 3.73 µM (inactive); in the experiment with SF-268, 15.6 µM (inactive). The GI50 was 8.61 µM (inactive) in the experiment on OVCAR-4; 6.56 µM (inactive) with SK-MEL-28; 15.5 µM (inactive) in the experiment with DU-145; 4.86 µM (inactive) in the experiment on EKVX; 7.78 µM (inactive) in the experiment on SN12C; 1.14 µM (inactive) with CCRF-CEM. The GI50 in the experiment with MDA-MB-231 was 10.8 µM (inactive); with HCT-15, 3.08 µM.
